Reference: patent publication US20150274661A1, “INDOL-AMIDE COMPOUNDS AS BETA-AMYLOID INHBITORS” (Hoffmann-La Roche Inc., priority 2012, published 2015)

tested on: Aβ42 secretion; assay: Cellular γ-secretase assay (inhibition of Aβ42 secretion); format: cell-based; settings: Homo sapiens, 22 h, human neuroglioma H4 cells overexpressing human APP, 22 hours incubation
Outline: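 H4 neuroglioma cells overexpressing human APP were exposed to compounds (ten-point dilution series, 0.4% DMSO) for 22 h at 37°C. Secreted Aβ42 in supernatant measured by electrochemiluminescence sandwich immunoassay (ruthenylated BAP15 detection, biotinylated 6E10 capture on streptavidin beads). IC50 by nonlinear regression.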

Compound	EC50 [nM]
CC(C)N1CCCC(c2ccc3[nH]c(C(=O)Nc4cc(F)cc(F)c4)cc3c2)C1 (stereo not shown) [Example 21, 5-(1-Isopropyl-piperidin-3-yl)-1H-indole-2-carboxylic acid (3,5-difluoro-phenyl)-amide]	177
CN1CCCC(c2ccc3[nH]c(C(=O)Nc4cc(F)cc(F)c4)cc3c2)C1 (stereo not shown) [Example 59, 5-(1-Methyl-piperidin-3-yl)-1H-indole-2-carboxylic acid (3,5-difluoro-phenyl)-amide]	183
COC(=O)CN1CCC(c2ccc3[nH]c(C(=O)Nc4ccc(F)cc4)cc3c2)CC1 [Example 43, {4-[2-(4-Fluoro-phenylcarbamoyl)-1H-indol-5-yl]-piperidin-1-yl}-acetic acid methyl ester]	2470
CC(C)C(=O)N1CCCC(c2ccc3[nH]c(C(=O)Nc4cc(F)cc(F)c4)cc3c2)C1 (stereo not shown) [Example 51, 5-(1-Isobutyryl-piperidin-3-yl)-1H-indole-2-carboxylic acid (3,5-difluoro-phenyl)-amide]	263
O=C(Nc1cccc(F)c1)c1cc2cc(C3CCCN(CCO)C3)ccc2[nH]1 (stereo not shown) [Example 67, N-(3-Fluorophenyl)-5-(1-(2-hydroxyethyl)piperidin-3-yl)-1H-indole-2-carboxamide]	657
N#CCN1CCC(c2ccc3[nH]c(C(=O)Nc4cccc(F)c4)cc3c2)C1 (stereo not shown) [Example 16, 5-(1-(Cyanomethyl)pyrrolidin-3-yl)-N-(3-fluorophenyl)-1H-indole-2-carboxamide]	373
CC(C)N1CCCC(c2ccc3[nH]c(C(=O)Nc4cc(F)cc(Cl)c4)cc3c2)C1 (stereo not shown) [Example 30, N-(3-Chloro-5-fluorophenyl)-5-(1-isopropylpiperidin-3-yl)-1H-indole-2-carboxamide]	742
CC(C)N1CCCC(c2ccc3[nH]c(C(=O)Nc4ccc(F)cc4)cc3c2)C1 (stereo not shown) [Example 47, 5-(1-Isopropyl-piperidin-3-yl)-1H-indole-2-carboxylic acid (4-fluoro-phenyl)-amide]	1150
CC(=O)N1CCC[C@H](c2ccc3[nH]c(C(=O)Nc4cc(F)cc(F)c4)cc3c2)C1 [Example 112, 5-((R)-1-Acetyl-piperidin-3-yl)-1H-indole-2-carboxylic acid (3,5-difluoro-phenyl)-amide]	226
CC(C)N1CCC(c2ccc3[nH]c(C(=O)Nc4ccc(C(C)(C)C)cc4)cc3c2)CC1 [Example 27, 5-(1-Isopropyl-piperidin-4-yl)-1H-indole-2-carboxylic acid (4-tert-butyl-phenyl)-amide]	8360
O=C(Nc1cc(F)cc(F)c1)c1cc2cc(C3CCN(CC(F)(F)F)C3)ccc2[nH]1 (stereo not shown) [Example 10, 5-[1-(2,2,2-Trifluoro-ethyl)-pyrrolidin-3-yl]-1H-indole-2-carboxylic acid (3,5-difluoro-phenyl)-amide]	3830
N#CCN1CC[C@H](c2ccc3[nH]c(C(=O)Nc4cccc(F)c4)cc3c2)C1 [Example 108, (R)-5-(1-(Cyanomethyl)pyrrolidin-3-yl)-N-(3-fluorophenyl)-1H-indole-2-carboxamide]	646
O=C(Nc1cc(F)cc(F)c1)c1cc2cc(C3CCCN(S(=O)(=O)C4CC4)C3)ccc2[nH]1 (stereo not shown) [Example 56, 5-(1-Cyclopropanesulfonyl-piperidin-3-yl)-1H-indole-2-carboxylic acid (3,5-difluoro-phenyl)-amide]	466
O=C(Nc1ccc(F)c(F)c1)c1cc2cc(C(O)CN3CCCCC3)ccc2[nH]1 (stereo not shown) [Example 100, 5-(1-Hydroxy-2-piperidin-1-yl-ethyl)-1H-indole-2-carboxylic acid (3,4-difluoro-phenyl)-amide]	2610
CC(C)C(=O)N1CCC(c2ccc3[nH]c(C(=O)Nc4cc(F)cc(F)c4)cc3c2)C1 (stereo not shown) [Example 13, 5-(1-Isobutyryl-pyrrolidin-3-yl)-1H-indole-2-carboxylic acid (3,5-difluoro-phenyl)-amide]	713
C[C@@H](c1ccc2[nH]c(C(=O)Nc3cc(F)cc(F)c3)cc2c1)[C@H]1CCN(CC(F)(F)F)C1 [Example 121, N-(3,5-Difluorophenyl)-5-((R)-1-((R)-1-(2,2,2-trifluoroethyl)pyrrolidin-3-yl)ethyl)-1H-indole-2-carboxamide]	7480
CC(C)N1CCC(c2ccc3[nH]c(C(=O)Nc4ccc(F)nc4)cc3c2)CC1 [Example 32, 5-(1-Isopropyl-piperidin-4-yl)-1H-indole-2-carboxylic acid (6-fluoro-pyridin-3-yl)-amide]	8150

same assay, conditions: human neuroglioma H4 cells overexpressing human APP, 22 hours incubation

Compound	EC50 [nM]
CN1CC[C@@H](c2ccc3[nH]c(C(=O)Nc4cc(F)cc(F)c4)cc3c2)C1 [Example 102, 5-((S)-1-Methyl-pyrrolidin-3-yl)-1H-indole-2-carboxylic acid (3,5-difluoro-phenyl)-amide]	300
CC(C)S(=O)(=O)N1CCC(c2ccc3[nH]c(C(=O)Nc4cc(F)cc(F)c4)cc3c2)C1 (stereo not shown) [Example 12, 5-[1-(Propane-2-sulfonyl)-pyrrolidin-3-yl]-1H-indole-2-carboxylic acid (3,5-difluoro-phenyl)-amide]	1710
